Measurements as given in patent publication US20240327372A1, “PREPARATION OF PHENE[…] […] STEREOISOMERS THEREOF AND PRECURSORS THEREOF” (priority 2022, published 2024).
Structures can show the parent of a compound that is named as a salt.

Legend:
hKir2.1 = hKir2.1 (Homo sapiens (Human), UniProt P63252); type: cell-based
Method: (§1) Electrophysiological assays were conducted to profile three compounds ((R)-methylone, (S)-methylone, or racemic methylone) for activities on the ion channel targets specified below using the Qube electrophysiological platform. Where presented, IC50 values were determined by a non-linear, least squares regression analysis. Reference standards were run as an integral part of each assay to ensure the validity of the results obtained.
(§2) Ion Channels tested were Eurofins Panel Part Number: CPROFullQB2DR Voltage-Gated Sodium: HEK-Nav1.5 (Peak), HEK-Nav1.5 (Late, Antagonist) Voltage-Gated Potassium: HEK-Kv4.3/KChIP2, CHO-hERG, CHO-KCNQ1/minK Voltage-Gated Calcium: HEK-Cav1.2 Inward-Rectifying Voltage-Gated Potassium: HEK-Kir2.1.
hKir2.1 Potassium Channel Assay—Qube APC After whole cell configuration is achieved, the cells are held at −30 mV. Kir2.1 currents are evoked by a single 500 ms pulse to −120 mV before returning to the holding potential of −30 mV. This paradigm is delivered once every 20 s to monitor the current amplitude.

[1] = Dynamic vapor sorption (DVS); type: physicochemical
Method: (§3) Two lots of methylone HCl samples were submitted to evaluate the stability of the solid forms under various humidity conditions. Dynamic vapor sorption (DVS) analysis was performed to evaluate the kinetic hygroscopicity and assess if variable humidity XRPD would be necessary, as well as to determine the appropriate humidity condition(s) for such XRPD analysis. Both pre- and post-DVS samples were analyzed by conventional XRPD for solid form confirmation or any potential form changes.
DVS analyses were carried out using a TA Instruments Q5000 Dynamic Vapor Sorption analyzer. The instrument was calibrated with standard weights and a sodium bromide standard for humidity. Approximately 12-13 mg of each powder sample was loaded into a metal-coated quartz pan for analysis. The samples were analyzed from 5 to 95% RH (adsorption cycle) and from 95 to 5% RH (desorption cycle) in 10% RH steps. The movement from one step to the next occurred either after satisfying the equilibrium criterion of 0.01% weight change in 5 minutes or, if the equilibrium criterion was not met, after 90 minutes. The percent weight change values were calculated using Microsoft EXCEL® 2016.

[2] = XRPD of pre- and post-DVS samples (form stability); type: physicochemical; conditions: pre- versus post-DVS
Method: as §3
The XRPD patterns between the pre- and post-DVS samples were compared for lots 213220 and KRR-R&D-2022-II-58, respectively.
Each sample was prepared in a silicon low background holder using light manual pressure to keep the sample surface flat and level with the reference surface of the sample holder. The single crystal Si low background holder has a circular recess (10 mm diameter and about 0.2 mm depth) that holds the sample. The Rigaku Smart-Lab diffraction system used was configured for Bragg-Brentano reflection geometry using a line source X-ray beam. The Bragg-Brentano geometry was controlled by passive divergence and receiving slits with the sample itself acting as the focusing component for the optics.

hKv4.3/hKChIP2 = hKv4.3/hKChIP2 (Homo sapiens (Human), UniProt Q9UK17); assay: hKv4.3/hKChIP2 Potassium Channel Assay, Qube APC; type: cell-based
Method: as §1, §2
hKv4.3/hKChIP2 Potassium Channel Assay—Qube APC After whole cell configuration is achieved, the cells are held at −80 mV. Onset and steady state block of hKv4.3 current is measured using a pulse pattern from −80 mV to 40 mV amplitude for a 110 ms duration, and finally a 100 ms ramp (1.2 V/s) to −80 mV. This paradigm is delivered once every 5 s to monitor the current amplitude.

hKCNQ1/hminK = hKCNQ1/hminK (Homo sapiens (Human), UniProt P51787); assay: hKCNQ1/hminK Potassium Channel Assay, Qube APC; type: cell-based; conditions: KCNQ1/mink
Method: as §1, §2
hKCNQ1/hminK Potassium Channel Assay—Qube APC After whole cell configuration is achieved, the cells are held at −80 mV. KCNQ1/minK currents are evoked by a 1000 ms pulse from −80 mV to 60 mV followed by a ramp from 60 mV to −80 mV over 115 ms with the outward peak currents measured upon depolarization of the cell membrane. This paradigm is delivered once every 15 s to monitor the current amplitude.

hNav1.5 = hNav1.5 (Homo sapiens (Human), UniProt Q14524); assay: hNav1.5 Sodium Channel Assay (peak), Qube APC; type: cell-based; conditions: Nav1.5, Antagonist mode, test compound
Method: (§4) Where presented, IC50 values were determined by a non-linear, least squares regression analysis.
(§5) Recombinant HEK-293 cells stably transfected with human Nav1.5 cDNA, recombinant HEK293 cell line expressing the human Cav1.2 (L-type voltage gated calcium channel, hCav1.2 α1C/β2a/α2δ1, and recombinant CHO-K1 cells stably transfected with human hERG cDNA were used separately in each of these assays.
hNav1.5 Sodium Channel Assay—Qube APC Onset and steady state block of peak Nav1.5 current is measured using a pulse pattern, repeated every 5 sec, consisting of a hyperpolarizing pulse to −120 mV for a 200 ms duration, depolarization to −15 mV amplitude for a 40 ms duration, followed by step to 40 mV for 200 ms and finally a 100 ms ramp (1.2 V/s) to a holding potential of −80 mV. Peak current is measured during the step to −15 mV.

hCav1.2 = hCav1.2 (Homo sapiens (Human), UniProt Q13936); assay: hCav1.2 (L-type) Calcium Channel Assay, Qube APC; type: cell-based; conditions: Cav1.2, Antagonist mode, test compound
Method: as §4, §5
hCav1.2 (L-type) Calcium Channel Assay—Qube APC After whole cell configuration is achieved, the cells are held at −90 mV. Cav1.2 currents are evoked by a 50 ms pulse to −100 mV followed by a 200 ms pulse to +20 mV before returning to the holding potential of −90 mV. This paradigm is delivered three times every 60 s to monitor the current amplitude.

hNav1.5 Late Current = hNav1.5 Late Current (Homo sapiens (Human), UniProt Q14524); assay: hNav1.5 Late Current Sodium Channel Assay, Qube APC; type: cell-based; conditions: Nav1.5 Late Current, Antagonist mode, test compound
Method: as §1, §2
hNav1.5 Late Current Sodium Channel Assay—Qube APC Onset and steady state block of Late Nav1.5 current is measured using a pulse pattern, repeated every 5 sec, consisting of a hyperpolarizing pulse to −120 mV for a 200 ms duration, depolarization to −15 mV amplitude for a 40 ms duration, followed by step to 40 mV for 200 ms and finally a 100 ms ramp (1.2 V/s) to a holding potential of −80 mV. Late current is measured as charge current elicited during the ramp with 50 nM ATXII.

Chain of hKv4.3/hKChIP2 (Q9UK17 whole entry, looked up): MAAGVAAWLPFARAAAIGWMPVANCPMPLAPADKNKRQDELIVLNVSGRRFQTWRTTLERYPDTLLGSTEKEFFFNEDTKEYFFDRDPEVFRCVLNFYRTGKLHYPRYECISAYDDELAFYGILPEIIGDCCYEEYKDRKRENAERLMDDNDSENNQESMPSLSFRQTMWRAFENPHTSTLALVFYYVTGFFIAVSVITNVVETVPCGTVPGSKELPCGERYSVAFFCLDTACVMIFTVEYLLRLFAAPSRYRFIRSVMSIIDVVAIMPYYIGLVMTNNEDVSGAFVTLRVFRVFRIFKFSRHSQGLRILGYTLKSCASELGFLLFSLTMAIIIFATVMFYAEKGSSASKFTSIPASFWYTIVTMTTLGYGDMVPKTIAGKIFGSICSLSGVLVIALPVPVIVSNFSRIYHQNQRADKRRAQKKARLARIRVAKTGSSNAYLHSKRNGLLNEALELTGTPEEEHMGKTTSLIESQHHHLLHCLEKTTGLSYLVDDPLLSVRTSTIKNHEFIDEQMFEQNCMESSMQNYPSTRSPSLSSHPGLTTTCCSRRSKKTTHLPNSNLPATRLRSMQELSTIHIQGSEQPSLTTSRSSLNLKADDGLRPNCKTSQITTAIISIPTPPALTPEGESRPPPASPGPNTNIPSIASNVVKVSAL
Chain of hKv4.3/hKChIP2 (Q9NS61 whole entry partner, looked up): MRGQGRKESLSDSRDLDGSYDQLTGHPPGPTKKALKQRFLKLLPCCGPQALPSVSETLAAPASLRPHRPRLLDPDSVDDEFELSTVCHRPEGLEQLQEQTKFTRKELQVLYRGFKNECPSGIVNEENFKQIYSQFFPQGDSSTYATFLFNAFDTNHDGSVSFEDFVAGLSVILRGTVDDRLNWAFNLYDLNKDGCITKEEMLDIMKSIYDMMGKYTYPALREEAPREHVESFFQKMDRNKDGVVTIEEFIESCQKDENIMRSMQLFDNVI
Chain of hKir2.1 (P63252 whole entry): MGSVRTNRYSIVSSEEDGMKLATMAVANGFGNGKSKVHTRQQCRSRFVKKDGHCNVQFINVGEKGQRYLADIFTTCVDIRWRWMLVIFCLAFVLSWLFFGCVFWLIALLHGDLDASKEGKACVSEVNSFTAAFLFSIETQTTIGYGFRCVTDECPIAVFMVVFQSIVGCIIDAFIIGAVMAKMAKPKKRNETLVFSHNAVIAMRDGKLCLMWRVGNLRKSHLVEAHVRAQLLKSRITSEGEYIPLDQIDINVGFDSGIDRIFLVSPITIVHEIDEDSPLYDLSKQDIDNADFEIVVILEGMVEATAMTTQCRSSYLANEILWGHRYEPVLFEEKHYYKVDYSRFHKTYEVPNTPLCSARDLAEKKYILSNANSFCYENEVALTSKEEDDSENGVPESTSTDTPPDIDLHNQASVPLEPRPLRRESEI

[Ba+2].[Cl-].[Cl-] [Barium Chloride]
IC50 (hKir2.1; Kir2.1, reference compound, read-out: Estimated IC50): 14.4 µM

CNC(C)C(=O)c1ccc2c(c1)OCO2 (centres unmarked) [Lot 213220, methylone HCl]
Hysteresis upon desorption [1]: little to no hysteresis | Form changes of post-DVS samples (XRPD) [2]: No form changes

O=C(NCC1CCCCN1)c1cc(OCC(F)(F)F)ccc1OCC(F)(F)F (centres unmarked) [Flecainide]
IC50 (hKv4.3/hKChIP2; Kc4.3/ChIP2, reference compound, read-out: Estimated IC50): 19.5 µM

CCS(=O)(=O)N(C)[C@H]1c2cc(C#N)ccc2OC(C)(C)[C@@H]1O (racemic) [Chromanol 293B]
IC50 (hKCNQ1/hminK; reference compound, read-out: Estimated IC50): 45.3 µM

CNC(C)C(=O)c1ccc2c(c1)OCO2.Cl [lot KRR-R&D-2022-II-58, methylone HCl]
Adsorbed water retained upon desorption [1]: approximately 0.06% | Hysteresis upon desorption [1]: slight hysteresis | Form changes of post-DVS samples (XRPD) [2]: No form changes

CNC(C)C(=O)c1ccc2c(c1)OCO2 (centres unmarked) [Methylone HCl, methylone HCl]
Estimated IC50 (hNav1.5): N/C (N/C indicates observed mean inhibition was <25%) | Estimated IC50 (hKv4.3/hKChIP2; Kc4.3/ChIP2, Antagonist mode, test compound): N/C (N/C indicates observed mean inhibition was <25%) | Estimated IC50 (hCav1.2): N/C (N/C indicates observed mean inhibition was <25%) | Estimated IC50 (hNav1.5 Late Current): N/C (N/C indicates observed mean inhibition was <25%) | Estimated IC50 (hKCNQ1/hminK; Antagonist mode, test compound): N/C (N/C indicates observed mean inhibition was <25%) | Estimated IC50 (hKir2.1; Kir2.1, Antagonist mode, test compound): N/C (N/C indicates observed mean inhibition was <25%)
